Data published in patent US11951108B2, “Combination therapy for treating cancer” (Epizyme, Inc., priority 2016, dated 2024).
Where two headings read alike, the source gives them in different places.

Experiments:
[1] = test system: A2780; experiment: In vitro combination study, ovarian cancer cell line A2780
[2] = test system: TOV112D; experiment: In vitro combination study, ovarian cancer cell line TOV112D; conditions: 4+3 model
[3] = test system: COV504
[4] = test system: RMUGS*; experiment: In vitro combination study, ovarian cancer cell line RMUGS; conditions: 7+3 model
[5] = test system: COV644*; experiment: In vitro combination study, ovarian cancer cell line COV644; conditions: COV644*; 7+3 model
[6] = test system: KURAMOCHI; experiment: In vitro combination study, ovarian cancer cell line KURAMOCHI; conditions: KURAMOCHI; 4+3 model
[7] = test system: CAMA-1; experiment: In vitro combination study, breast cancer cell line CAMA-1; format: cell-based; conditions: ER/PR +/−, HER2 +, 7 day pre-treatment + 6 day co-treatment
[8] = test system: SKOV3; experiment: In vitro combination study, ovarian cancer cell line SKOV3; conditions: 4+3 model
[9] = test system: HCC1419; experiment: In vitro combination study, breast cancer cell line HCC1419; conditions: ER/PR −/−, HER2 +, 7 day pre-treatment + 6 day co-treatment
[10] = test system: ES-2; experiment: In vitro combination study, ovarian cancer cell line ES-2; conditions: 4+3 model
[11] = test system: SUM52PE; experiment: In vitro combination study, breast cancer cell line SUM52PE; conditions: ER/PR −/−, HER2 −, 7 day pre-treatment + 6 day co-treatment
[12] = test system: CAOV-3; experiment: In vitro combination study, ovarian cancer cell line CAOV-3; format: cell-based; conditions: 4+3 model
[13] = test system: JH)S-4; experiment: In vitro combination study, ovarian cancer cell line JH)S-4; conditions: 4+3 model
[14] = test system: COV362; experiment: In vitro combination study, ovarian cancer cell line COV362; conditions: COV362; 4+3 model

Q: For `CC1(C)CCC(CN2CCN(c3ccc(C(=O)NS(=O)(=O)c4ccc(NCC5CCOCC5)c([N+](=O)[O-])c4)c(Oc4cnc5[nH]ccc5c4)c3)CC2)=C(c2ccc(Cl)cc2)C1` [ABT199], which “Synergy or antagonism of second agent with tazemetostat (IC50 shift of second agent)” value ([1]; A2780, 4+3 model) is on record?
A: C (Synergy > 2× IC50 shift)

Q: What about the “Synergy or antagonism of second agent with tazemetostat (IC50 shift of second agent)” value [2] of the same molecule?
A: C (Synergy > 2× IC50 shift)

Q: `COc1cc2c(Oc3ccc4[nH]c(C)cc4c3F)ncnc2cc1OCCCN1CCCC1` [AZD2171] was tested. Which “Synergy or antagonism of second agent with tazemetostat (IC50 shift of second agent)” value ([3]; COV504, 4+3 model) did it give?
A: B (Synergy > 4× IC50 shift)

Q: What about the “Synergy or antagonism of second agent with tazemetostat (IC50 shift of second agent)” value [4] of the same molecule?
A: C (Synergy > 2× IC50 shift)

Q: What about the “Synergy or antagonism of second agent with tazemetostat (IC50 shift of second agent)” value ([1]; A2780, 4+3 model) of the same molecule?
A: C (Synergy > 2× IC50 shift)

Q: What about the “Synergy or antagonism of second agent with tazemetostat (IC50 shift of second agent)” value [5] of the same molecule?
A: C (Synergy > 2× IC50 shift)

Q: What about the “Synergy or antagonism of second agent with tazemetostat (IC50 shift of second agent)” value [6] of the same molecule?
A: C (Synergy > 2× IC50 shift)

Q: `N.N.O=C([O-])C1(C(=O)[O-])CCC1.[Pt+2]` [Carboplatin] was tested. Which “Synergy or antagonism of second agent with tazemetostat (IC50 shift of second agent)” value ([1]; A2780, 4+3 model) did it give?
A: B (Synergy > 4× IC50 shift)

Q: Which “Synergy or antagonism of second agent with tazemetostat (IC50 shift of second agent)” value [7] does the source give for `CCc1cnn2c(NCc3ccc[n+]([O-])c3)cc(N3CCCC[C@H]3CCO)nc12` [Dinaciclib] here?
A: A (Antagonism)

Q: With `Nc1ccn([C@@H]2O[C@H](CO)[C@@H](O)C2(F)F)c(=O)n1` [Gemcitabine] as the molecule, how does the “Synergy or antagonism of second agent with tazemetostat (IC50 shift of second agent)” value ([3]; COV504, 4+3 model) read?
A: C (Synergy > 2× IC50 shift)

Q: What about the “Synergy or antagonism of second agent with tazemetostat (IC50 shift of second agent)” value [4] of the same molecule?
A: B (Synergy > 4× IC50 shift)

Q: And the “Synergy or antagonism of second agent with tazemetostat (IC50 shift of second agent)” value [8]?
A: C (Synergy > 2× IC50 shift)

Q: What about the “Synergy or antagonism of second agent with tazemetostat (IC50 shift of second agent)” value ([1]; A2780, 4+3 model) of the same molecule?
A: B (Synergy > 4× IC50 shift)

Q: And the “Synergy or antagonism of second agent with tazemetostat (IC50 shift of second agent)” value [9]?
A: C (Synergy > 2× IC50 shift)

Q: Which “Synergy or antagonism of second agent with tazemetostat (IC50 shift of second agent)” value [10] does the source give for `Cc1ccc(NC(=O)c2ccc(CN3CCN(C)CC3)cc2)cc1Nc1nccc(-c2cccnc2)n1` [Imatinib] here?
A: A (Antagonism)

Q: Which results are given for `NC(=O)c1ccc(I)c([N+](=O)[O-])c1` [Iniparib (BSI 201), Iniparib]?
A: Synergy or antagonism of second agent with tazemetostat (IC50 shift of second agent) [7]: C (Synergy > 2× IC50 shift); Synergy or antagonism of second agent with tazemetostat (IC50 shift of second agent) [11]: C (Synergy > 2× IC50 shift); Synergy or antagonism of second agent with tazemetostat (IC50 shift of second agent) [9]: C (Synergy > 2× IC50 shift)

Q: Which results are given for `C=CCn1c(=O)c2cnc(Nc3ccc(N4CCN(C)CC4)cc3)nc2n1-c1cccc(C(C)(C)O)n1` [MK1775]?
A: Synergy or antagonism of second agent with tazemetostat (IC50 shift of second agent) [12]: C (Synergy > 2× IC50 shift); Synergy or antagonism of second agent with tazemetostat (IC50 shift of second agent) ([3]; COV504, 4+3 model): C (Synergy > 2× IC50 shift); Synergy or antagonism of second agent with tazemetostat (IC50 shift of second agent) [4]: B (Synergy > 4× IC50 shift); Synergy or antagonism of second agent with tazemetostat (IC50 shift of second agent) [8]: C (Synergy > 2× IC50 shift); Synergy or antagonism of second agent with tazemetostat (IC50 shift of second agent) ([1]; A2780, 4+3 model): B (Synergy > 4× IC50 shift); Synergy or antagonism of second agent with tazemetostat (IC50 shift of second agent) [13]: C (Synergy > 2× IC50 shift); Synergy or antagonism of second agent with tazemetostat (IC50 shift of second agent) [5]: B (Synergy > 4× IC50 shift); Synergy or antagonism of second agent with tazemetostat (IC50 shift of second agent) [2]: C (Synergy > 2× IC50 shift); Synergy or antagonism of second agent with tazemetostat (IC50 shift of second agent) [6]: C (Synergy > 2× IC50 shift)

Q: What does the source list for `C/C=C1\NC(=O)[C@H]2CSSCC/C=C/[C@H](CC(=O)N[C@H](C(C)C)C(=O)N2)OC(=O)[C@H](C(C)C)NC1=O` [Romidepsin]?
A: Synergy or antagonism of second agent with tazemetostat (IC50 shift of second agent) [3]: C (key: B: Synergy > 4× IC50 shift; Synergy > 2× IC50 shift; No Effect; Antagonism; X: Not Tested); Synergy or antagonism of second agent with tazemetostat (IC50 shift of second agent) [14]: C (Synergy > 2× IC50 shift)

Q: With `CCCS(=O)(=O)Nc1ccc(F)c(C(=O)c2c[nH]c3ncc(-c4ccc(Cl)cc4)cc23)c1F` [Vemurafenib] as the molecule, how does the “Synergy or antagonism of second agent with tazemetostat (IC50 shift of second agent)” value [10] read?
A: C (Synergy > 2× IC50 shift)

Q: With AZD5363 as the molecule, how does the “Synergy or antagonism of second agent with tazemetostat (IC50 shift of second agent)” value [1] read?
A: B (key: B: Synergy > 4× IC50 shift; Synergy > 2× IC50 shift; No Effect; Antagonism; X: Not Tested)
